Test results: PMC6205224 (Molecular cell, 2018)

Columns and labels:
Mtb RNAP σ^A holoenzyme = Mtb RNAP σ^A holoenzyme (Mycobacterium tuberculosis, UniProt P9WGY7+P9WGY9); experiment: Fluorescence-detected RNAP-inhibition assay; assay type: biochemical
[1] = target: E. coli RNAP σ^70 holoenzyme (Escherichia coli, UniProt P0A8T7+P0A8V2); experiment: Fluorescence-detected RNAP-inhibition assay; assay type: biochemical
[2] = target: S. aureus RNAP σ^A holoenzyme (Staphylococcus aureus, UniProt P47768+Q2G0N5); experiment: Fluorescence-detected RNAP-inhibition assay; assay type: biochemical; settings: Fig. S5
E. coli D21f2tolC [3] = assay type: cell-based, Escherichia coli; settings: for cross-resistance of E. coli Lpm-resistant mutants to the compound: chromosomal Lpm-resistant mutants of E. coli D21f2tolC, Fig. 2D; for MICwild-type: wild-type E. coli D21f2tolC, LB broth, 16 h at 37°C, growth inhibited by ≥90%
RNAP clamp = settings: interactions with SW1 and opposite face of SW2; ref Chakraborty et al., 2012; cited from earlier work
[4] = target: T. thermophilus RNAP σ^A holoenzyme (Thermus thermophilus, UniProt Q8RQE8+Q8RQE9); experiment: Fluorescence-detected RNAP-inhibition assay; assay type: biochemical
human RNAP I/II/III = experiment: Radiochemical RNAP-inhibition assay with HeLa nuclear extract; assay type: biochemical; settings: Fig. S4C
E. coli D21f2tolC [5] = experiment: Checkerboard interaction assay; assay type: cell-based, Escherichia coli; settings: combination of Lpm and Rif; checkerboard format; Fig. 2F
[6] = target: E. coli RNAP σ^70 holoenzyme (Escherichia coli, UniProt P0A8T7+P0A8V2, D284F/E106F); experiment: Single-molecule FRET of RNAP clamp conformation; assay type: biochemical; settings: 20 μM Lpm; Fig. 4E-F
E. coli strain D21f2tolC = experiment: Colony formation on LB-agar plates containing Lpm; assay type: cell-based, Escherichia coli; settings: 200 μg/ml ampicillin, 1 mM IPTG, 24-48 h at 37°C
[7] = in vivo; cited from earlier work

Compound | cross-resistance of E. coli Lpm-resistant mutants to the compound (E. coli D21f2tolC [3]) | MICwild-type (E. coli D21f2tolC [3]) [µg/mL] | also measured
4"-O-benzyl-Lpm [a1] | – | – | potency in inhibiting Mtb RNAP relative to Lpm (Mtb RNAP σ^A holoenzyme): within approximately an order of magnitude of that of Lpm; potency in inhibiting Escherichia coli RNAP relative to Lpm ([1]; Fig. S5): equal to that of Lpm; potency in inhibiting S. aureus RNAP relative to Lpm [2]: within approximately an order of magnitude of that of Lpm
ONC(=Nc1ccccc1)c1cccc(C(F)(F)F)c1 [CBR, CBR703] | Absence of significant cross-resistance | 6.25 | –
C/C=C/C/C=C(\C)C(O)CC/C(C)=C/C=C(\C)C(=O)c1c(O)cc([C@H](C)CC/C=C/NC(=O)OC)oc1=O (some centres unmarked) [Cor, corallopyronin] | – | – | effect on RNAP clamp conformation (RNAP clamp): trap a closed-clamp state
CCc1c(Cl)c(O)c(Cl)c(O)c1C(=O)O[C@H]1[C@H](O)[C@H](OC)[C@H](OC/C2=C\C=C\C[C@H](O)/C(C)=C/[C@H](CC)[C@@H](O[C@@H]3OC(C)(C)[C@@H](OC(=O)C(C)C)[C@H](O)[C@@H]3O)/C(C)=C/C(C)=C/C[C@@H]([C@@H](C)O)OC2=O)O[C@@H]1C [Lpm, lipiarmycin A3] | – | 1.56 | IC50 [1]: 8 µM; IC50 [4]: 200 µM; ability to inhibit human RNAP I, II, and III (human RNAP I/II/III): not human RNAP I, II, and III; cross-resistance of E. coli Rif-, GE/PUM-, Sal-, CBR-, and Stl-resistant mutants to Lpm (E. coli D21f2tolC [3]; E. coli D21f2tolC derivatives, Fig. 2E): Absence of significant cross-resistance; antibacterial interaction of Lpm and Rif when co-administered (E. coli D21f2tolC [5]): additive antibacterial activity; effect on RNAP clamp conformation in solution [6]: traps the open-clamp state; minimal concentration that prevents colony formation by wild-type transformants (E. coli strain D21f2tolC): 5 µg/mL; systemic bioavailability [7]: no systemic bioavailability
NC(=O)CC[C@@H](C(=O)NC[C@H]1O[C@@H](c2c[nH]c(=O)[nH]c2=O)[C@H](O)[C@@H]1O)N(O)C(=O)CN=C(N)N [PUM, pseudoridimycin] | Absence of significant cross-resistance | 400 | –
CO[C@H]1/C=C/O[C@@]2(C)Oc3c(C)c(O)c4c(O)c(c(/C=N/N5CCN(C)CC5)c(O)c4c3C2=O)NC(=O)/C(C)=C\C=C\[C@H](C)[C@H](O)[C@@H](C)[C@@H](O)[C@@H](C)[C@H](OC(C)=O)[C@@H]1C [Rif, rifampin] | Absence of significant cross-resistance | 0.20 | –
C/C(=C\Cc1ccccc1)CCC(=O)C[C@H]1C[C@H](O)C/C(C)=C/C/C=C/C/C(CC(=O)O)=C\C(=O)O1 [Rip, ripostatin] | – | – | effect on RNAP clamp conformation (RNAP clamp): trap a closed-clamp state
CNC(=O)[C@@H](C)[C@H]1C(=O)/C(=C(O)/C=C/C(C)=C/[C@@H](C)[C@H]2O[C@@]3(C)O[C@H](C=C[C@@]34CO4)[C@@H]2C)C(=O)N1[C@@H]1CC[C@H](O)[C@H](C)O1 [Stl, streptolydigin] | Absence of significant cross-resistance | 3.13 | –
GE23077 | Absence of significant cross-resistance | 500 | –
myxopyronin | Absence of significant cross-resistance | 0.20 | effect on RNAP clamp conformation (RNAP clamp): trap a closed-clamp state
salinamide | Absence of significant cross-resistance | 0.049 | –
